In this test the target is T1, Recombinant human renin (Homo sapiens, UniProt P00797).
T1 construct: isolate the active form (residues 67-406); made in house; host or cells: FreeStyle 293-F cells (transient expression of pcDNA3.1(+)/hREN)
T1 sequence (P00797 67-406): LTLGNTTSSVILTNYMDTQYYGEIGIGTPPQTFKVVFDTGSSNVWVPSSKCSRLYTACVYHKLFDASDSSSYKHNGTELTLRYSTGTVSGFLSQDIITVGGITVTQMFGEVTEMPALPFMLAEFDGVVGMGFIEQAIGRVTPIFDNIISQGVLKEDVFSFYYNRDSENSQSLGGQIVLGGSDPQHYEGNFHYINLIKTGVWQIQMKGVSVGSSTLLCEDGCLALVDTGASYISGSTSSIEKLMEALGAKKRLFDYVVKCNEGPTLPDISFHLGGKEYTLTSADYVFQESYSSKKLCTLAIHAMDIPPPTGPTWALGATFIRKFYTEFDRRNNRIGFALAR
The test can be described thus: In vitro enzymatic activity assay of renin inhibitors (fluorogenic peptide substrate). The test is classed as biochemical. On the procedure:
Test compounds in varying concentrations may be reacted with recombinant human renin in the presence of substrate, e.g., QXL520-γ-Abu-[…](HiLyteFluo488)-Arg-OH (Anaspec, San Jose, Calif.). […] Inhibition constants (IC50) may be calculated by non-linear curve fitting of the compound concentrations and fluorescence intensities to the standard IC50 equation.
Solutions of test compounds in varying concentrations mM final concentration) are prepared in dimethyl sulfoxide (DMSO) and then diluted into assay buffer comprising 50 mM Hepes, 1 mM EDTA, 1 mM DTT, 0.1 mg/mL BSA, 0.01% Brij35, pH 7.4. Alternatively, the assay can be performed with a high BSA concentration, wherein the buffer contains an additional 2% BSA.
Recombinant human renin (3 nM final concentration) is added to the dilutions and pre-incubated with the compounds for 10 minutes at 37° C. […] After pre-incubation, the reaction is initiated with of substrate QXL520-γ-Abu-[…](HiLyteFluo488)-Arg-OH (Anaspec, San Jose, Calif.). The final DMSO in the assay is 5%. The total volume of the reaction mixture is 20 μL, which can be placed on Greiner 384-well small volume plates.
The fluorescence intensity is determined upon the addition of substrate and determined again after incubation at 37° C. for one hour. The fluorescence intensity of a blank (no inhibition) using vehicle alone is also determined. Renin activity is linearly proportional to the change in fluorescence observed (final-initial).

The mark [1] stands for this setting: read-out: IC50 of Exemplified Compounds Against Renin.

Like-named read-outs stand apart in the source and are kept apart here.

IC50 data for eleven compounds are collected here from US8138168B1 (Takeda Pharmaceutical Company Limited, priority 2007, dated 2012).

Broadly, the IC50 is the point on the concentration scale where inhibition reaches its midpoint. Consider `COCCCn1c(C2CCCN(C(=O)C[C@H](N)Cc3ccc4ccccc4c3)C2)nc2cccc(C(=O)OC)c21` (stereo partly drawn) [Compound 112, methyl 2-(1-((R)-3-amino-4-(naphthalen-2-yl)butanoyl)piperidin-3-yl)-1-(3-methoxypropyl)-1H-benzo[d]imidazole-7-carboxylate], for which the IC50 under setting [1] was greater than 1 µM. Still for that read-out and setting: the result for `COCCCn1c([C@@H]2CCCN(C(=O)C[C@H](N)Cc3ccc(-c4ccc5oc(N)nc5c4)cc3)C2)nc2c(F)cccc21` [Compound 463, (R)-3-amino-4-(4-(2-aminobenzo[d]oxazol-5-yl)phenyl)-1-((R)-3-(4-fluoro-1-(3-methoxypropyl)-1H-benzo[d]imidazol-2-yl)piperidin-1-yl)butan-1-one] reads less than 0.1 µM; that for `COCCCn1c([C@@H]2CCCN(C(=O)C[C@H](N)Cc3ccc4ccccc4c3)C2)nc2c(C)cccc21` [Compound 106, (R)-3-Amino-1-((R)-3-(1-(3-methoxypropyl)-4-methyl-1H-benzo[d]imidazol-2-yl)piperidin-1-yl)-4-(naphthalen-2-yl)butan-1-one], less than 0.1 µM; that for `COCCCn1c([C@@H]2CCCN(C(=O)C[C@H](N)Cc3ccc(-c4ccc(N)nc4)cc3)C2)nc2c(F)cccc21` [Compound 452, (R)-3-amino-4-(4-(6-aminopyridin-3-yl)phenyl)-1-((R)-3-(4-fluoro-1-(3-methoxypropyl)-1H-benzo[d]imidazol-2-yl)piperidin-1-yl)butan-1-one], less than 0.1 µM. As for `CC(=O)NCCn1c([C@@H]2CCCN(C(=O)C[C@H](N)Cc3ccc(-c4cnc(N)nc4)cc3)C2)nc2c(C)cccc21` [Compound 472, N-(2-(2-((R)-1-((R)-3-amino-4-(4-(2-aminopyrimidin-5-yl)phenyl)butanoyl)piperidin-3-yl)-4-methyl-1H-benzo[d]imidazol-1-yl)ethyl)acetamide], the IC50 under setting [1] lay in the range of 0.1 to 1 µM. The same measure, in the same setting: the result for `COCCCn1c([C@@H]2CCCN(C(=O)C[C@H](N)Cc3cccc(-c4ccccc4)c3)C2)nc2ccccc21` [Compound 122, (R)-3-amino-4-(biphenyl-3-yl)-1-((R)-3-(1-(3-methoxypropyl)-1H-benzo[d]imidazol-2-yl)piperidin-1-yl)butan-1-one] reads less than 0.1 µM. Same read-out and setting: the result for `COCCCn1c([C@@H]2CCCN(C(=O)C[C@H](N)Cc3ccc(-c4ccccc4COC)cc3)C2)nc2ccccc21` [Compound 130, (R)-3-amino-4-(2′-(methoxymethyl)biphenyl-4-yl)-1-((R)-3-(1-(3-methoxypropyl)-1H-benzo[d]imidazol-2-yl)piperidin-1-yl)butan-1-one] reads less than 0.1 µM. Still for that read-out and setting: the result for `COCCCn1c([C@@H]2CCCN(C(=O)[C@@H]3CN(S(=O)(=O)c4ccc(N5CCCC5=O)cc4)C[C@H]3N)C2)nc2ccccc21` [Compound 382, 1-(4-((3S,4R)-3-amino-4-((R)-3-(1-(3-methoxypropyl)-1H-benzo[d]imidazol-2-yl)piperidine-1-carbonyl)pyrrolidin-1-ylsulfonyl)phenyl)pyrrolidin-2-one] reads 0.1 to 1 µM; that for `COCCCn1c([C@@H]2CCCN(C(=O)C[C@H](N)CNS(=O)(=O)c3c(Cl)cccc3Cl)C2)nc2ccccc21` [Compound 290, N-((S)-2-amino-4-((R)-3-(1-(3-methoxypropyl)-1H-benzo[d]imidazol-2-yl)piperidin-1-yl)-4-oxobutyl)-2,6-dichlorobenzenesulfonamide], 0.1 to 1 µM. On to `COCCCn1c([C@@H]2CCCN(C(=O)[C@@H]3CN(C(=O)Oc4ccc(Cl)cc4)C[C@H]3N)C2)nc2ccccc21` [Compound 407, (3S,4R)-4-chlorophenyl 3-amino-4-((R)-3-(1-(3-methoxypropyl)-1H-benzo[d]imidazol-2-yl)piperidine-1-carbonyl)pyrrolidine-1-carboxylate], for which the IC50 is greater than 1 µM. Turning to `COCCCn1c([C@@H]2CCCN(C(=O)C[C@H](N)Cc3ccc(-c4ccc(C(=O)NCCO)cc4)cc3)C2)nc2ccccc21` [Compound 182, 4′-((R)-2-amino-4-((R)-3-(1-(3-methoxypropyl)-1H-benzo[d]imidazol-2-yl)piperidin-1-yl)-4-oxobutyl)-N-(2-hydroxyethyl)biphenyl-4-carboxamide], the IC50 under setting [1] is less than 0.1 µM.
